Structures are written as SMILES.

The subject of one assay is A549. As to the kind of experiment: Inhibitory concentration against growth of A549 lung carcinoma cell. The class given is functional, cell-based. Conditions: Homo sapiens.
In a further assay the test system is HeLa. In words: Inhibitory concentration against HeLa cell colony formation; Range is 15-20 uM. Conditions: Homo sapiens. The class given is functional, cell-based.
Assay [1] concerns the target Mitogen-activated protein kinase 1 (Homo sapiens, UniProt P28482). As to the kind of experiment: Dissociation constant for ERK2 kinase.

Sequence of Mitogen-activated protein kinase 1 (P28482 whole entry): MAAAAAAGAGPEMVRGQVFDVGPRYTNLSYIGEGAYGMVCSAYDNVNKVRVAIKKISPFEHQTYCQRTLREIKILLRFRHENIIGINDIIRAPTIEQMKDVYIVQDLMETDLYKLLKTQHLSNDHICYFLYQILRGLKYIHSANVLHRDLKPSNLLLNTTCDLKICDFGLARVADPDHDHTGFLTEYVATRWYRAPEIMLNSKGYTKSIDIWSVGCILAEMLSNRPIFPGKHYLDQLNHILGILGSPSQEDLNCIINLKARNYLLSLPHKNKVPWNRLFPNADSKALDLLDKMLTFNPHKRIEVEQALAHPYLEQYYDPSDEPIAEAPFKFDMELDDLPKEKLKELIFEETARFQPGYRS

In general, IC50 refers to the concentration at which inhibition is half-maximal. In the case of `O=C(CCN1CCN(C/C=C/c2ccccc2)CC1)Nc1ccc(Cl)cc1`, the results for the IC50 in the assay on A549 and in the assay on HeLa were 15 µM and 20 µM, respectively.

The Kd is the constant that tells how readily two partners part at equilibrium. Read a high Kd as a looser complex. `CCOc1ccc(/C=C2\SC(=O)N(CCN)C2=O)cc1` gave a Kd in assay [1] of 5 µM. In addition, the IC50 in the assay with A549 is 25 µM; with HeLa, 20 µM.

Consider `O=C(CSc1nc2ccccc2o1)Nc1ccc(-n2cnnn2)cc1`, for which binding in assay [1] was characterised by a dissociation constant (Kd) of 5 µM.
